Patent publication US9737540B2, “Combination treatment of cancer” (ASTRAZENECA AB, priority 2011, dated 2017)
Where two headings read alike, the source gives them in different places.

Experiments:
[1] = system: LNCaP prostate tumour cell line; assay: Proliferation assay, Sytox Green endpoint, live cell number after 5 days (LNCaP); type: cell-based; conditions: LNCaP cells; monotherapy or with MDV-3100 0.1 μM to 10 μM; n=3
Protocol: (§1) The LNCaP and VCAP prostate tumour cell lines (American Tissue Culture Collection) were routinely cultured in RMPI supplemented with 10% FCS and 2 mM L-glutamine. To determine the effect of AZD5363 and MDV-3100, either as a monotherapy or in combination, on cell growth, a proliferation assay was performed using the Sytox Green endpoint to measure live cell number after 5 days. […] Cells were then dosed with increasing concentrations of AZD5363 (0.01-1 μM), MDV-3100 (0.1-10 μM) or a combination of each agent in a 6×6 matrix format. After 5-day exposure to compound, Sytox Green nucleic acid dye (Invitrogen) diluted in TBS-EDTA (TBS=Tris-buffered saline, EDTA=ethylenediaminetetraacetic acid) buffer was added to cells at a final concentration of […] and the number of dead cells detected using an Acumen Explorer. Cells were then permeabilised by the addition of saponin (0.03% final concentration, diluted in TBS-EDTA buffer), incubated overnight and a total cell count measured. The live cell count was then determined by subtracting the number of dead cells per well from the total number of cells. […] The data is presented as % growth using the NCI formulae as follows: [(Ti-Tz)/(C-Tz)]×100 for concentrations for which Ti>/=Tz [(Ti-Tz)/Tz]×100 for concentrations for which Ti<Tz. […] Synergism of the drug combination was evaluated using a unified approach described by C. […]

[2] = system: VCAP prostate tumour cell line; assay: Proliferation assay, Sytox Green endpoint, live cell number after 5 days (VCAP); type: cell-based; conditions: VCAP cells; monotherapy or with MDV-3100 0.1 μM to 10 μM; n=3
Protocol: as §1

[3] = system: LNCaP prostate cancer cells (PTEN null, androgen receptor positive); type: in vivo; conditions: castrated mice

SMILES	Effect on cell growth / cell death (mean % growth, FIG. 1) [1]	Effect on cell growth (mean % growth, FIG. 2) [2]	inhibition of tumour volume ([3]; AZD5363 monotherapy 100 mg/kg bd, 5 days on, 2 days off) [%]	inhibition of tumour volume ([3]; bicalutamide monotherapy 50 mg/kg qd) [%]
NC1(C(=O)N[C@@H](CCO)c2ccc(Cl)cc2)CCN(c2ncnc3[nH]ccc23)CC1 [AZD5363, (S)-4-amino-N-(1-(4-chlorophenyl)-3-hydroxypropyl)-1-(7H-pyrrolo[2,3-d]pyrimidin-4-yl)piperidine-4-carboxamide]	can inhibit the growth of LNCaP cells and induce cell death as a monotherapy	can inhibit the growth of VCAP cells as a monotherapy	56	–
CC(O)(CS(=O)(=O)c1ccc(F)cc1)C(=O)Nc1ccc(C#N)c(C(F)(F)F)c1 (stereo not shown) [bicalutamide, N-[4-cyano-3-(trifluoromethyl)-phenyl]-3-[(4-fluorophenyl)-sulfonyl]-2-hydroxy-2-methylpropanamide, reference compound]	–	–	–	42
